Results reported in US20150174158A1, “[…] NITRIC OXIDE FOR TREATING RESPIRATORY DISEASES” (Advanced Inhalation Therapies (AIT) Ltd., priority 2012, published 2015).
Read-outs that look alike come from different tables or passages of the source.

Columns and labels:
methemoglobin (SpMet) = assay: Phase I safety study: methemoglobin (SpMet) by pulse oximeter; assay type: in vivo, human
Protocol: (§1) After obtaining informed consent, treatment was initiated within 5 days of enrollment. Subjects were housed in a hospital ward and received 160 ppm gNO for 30 minutes every four hours (Q4h), five times a day, for five consecutive days by inhalation. Subjects returned for follow-up evaluations 3, 7 and 21 days after the final gNO administration. Subject safety was determined by monitoring vital signs, methemoglobin levels, lung function, blood chemistry, hematology, prothrombin time, inflammatory cytokine/chemokines levels and endothelial activation. These parameters were compared to baseline and at various time-points during and after gNO administration.
The levels of gNO, NO2, O2 and methemoglobin were monitored during the administration of gNO. The target gas mixture was 160 ppm gNO with a nitrogen dioxide (NO2) level of less than 5 ppm and an oxygen (O2) level ranging from 21% to 25%. Inspiratory NO, NO2 and O2 levels were continuously monitored by sampling from the mouthpiece sample port located about 6 millimeters from the mouth of the subject with an AeroNOx (Pulmonox, AB, Canada) NO, NO2 and O2 electrochemical analyzer. Delivery safety was determined by the number of occasions that NO2 exceeded 5 ppm, gNO exceeding 10% variation and O2 dropping below 20% during gNO administration. A commercially available noninvasive pulse oximeter (Rad 57, Masimo Corporation, USA) was used to measure saturation levels at the periphery of methemoglobin (SpMet).
(§2) These parameters were measured continuously during every gNO administration course and for 3.5 hours after the first treatment of the day. Daily serum samples were collected and frozen at −80° C. and the serum […] level was measured using the Griess reagent.
FIGS. 4A-B present results of monitoring methemoglobin levels before, during and after inhalation of 160 ppm of gaseous nitric oxide by 10 healthy human individuals, undergone 5 gNO administration courses daily, each lasting 30 minutes, for 5 consecutive days, while methemoglobin levels were measured using a pulse oximeter, wherein FIG. 4A is a plot of methemoglobin levels by percents as a function of time as measured before (time point 0), during 250 individual 30 minutes gNO administration courses (time interval of 0 to 30 minutes), after the courses (time interval of 30 to 60 minutes) and at 120 minutes, 180 minutes and 240 minutes after gNO administration was discontinued, and FIG. 4B is a plot of methemoglobin levels by percents as a function of time as measured at the beginning and end of 30 minutes gNO administration courses given over the course of 5 days, and followed 8, 12 and 26 days after gNO administration was discontinued.

[1] = system: bovine respiratory disease; settings: intermittent gNO; cited from earlier work
[2] = cited from earlier work
[3] = Phase I safety study: serum nitrite/nitrate by Griess reagent; assay type: in vivo, human; settings: 160 ppm gNO 30 min, 5 times a day, 5 days
Protocol: as §1, §2

[4] = system: TNF, IL-6, IL-8, IL-10, IL-1b and IL-12p70; assay: Phase I safety study: plasma cytokines by cytometric bead array; assay type: in vivo, human; settings: vs baseline, all sampling time points
Description: Hematological assessment included a complete blood count and differentials (hemoglobin, hematocrit, red blood cell count, white blood cell count, white blood cell differential, and platelet count) were obtained in order to monitor blood chemistry, hematology and inflammation measurements. The blood chemistry profile included serum creatinine, and liver function tests such as aspartate aminotransferase (AST) serum glutamic oxaloacetic transaminase (SGOT), alkaline phosphatase, and gamma-glutamyl transferase (GGT). The effect of gNO on coagulation was determined by the prothrombin time (PT) and its derived measures of prothrombin ratio (PR) and international normalized ratio (INR). Heparinized plasma was collected at baseline and on days 1, 2, 4, and 5 of gNO administration, and on follow-up days 3, 7 and 21 and frozen at −80° C. Plasma cytokine levels were assessed using the human inflammation cytokine bead array kit (BD Bioscience, Canada). Plasma levels of angiopoietin Ang-1 and Ang-2 were determined by ELISA (R&D Systems, USA).
To assess whether gNO inhalation may cause inflammation or endothelial activation cytokines and the vascular endothelium activation factors Ang-1 and Ang-2 were quantified in peripheral plasma at baseline at various time points thereafter. […]

[5] = cited from earlier work; for mortality: 6 h/day, groups of 10 rats
methemoglobin (MetHb) = settings: healthy humans, cited from earlier work
[6] = system: chronic, non-healing wound; settings: topical 200 ppm gNO, within the first three days; cited from earlier work
Klebsiella sp. #2 = settings: 200 ppm gNO; saline; cited from earlier work

[N]=O [gNO, nitric oxide]
residual increase in SpMet at follow-up (methemoglobin (SpMet); 3, 7 and 21 days after final exposure): did not show any residual increase
time for SpMet to return to baseline (methemoglobin (SpMet); after 30 min 160 ppm gNO): 3.5 h
highest SpMet (methemoglobin (SpMet); end of the 30 minutes treatment, 160 ppm gNO, baseline 0.16 (SD=0.10)): 2.5%
accumulative effect on SpMet (methemoglobin (SpMet); five daily treatments for five consecutive days): no accumulative or lingering effect
average increase of SpMet (methemoglobin (SpMet); single 30 min treatment course, 160 ppm gNO, SD=0.08): 0.9%
clinical symptoms of bovine respiratory disease [1]: decrease the clinical symptoms
radius of action from site of origin ([2]; in vivo): approximately 200 microns
nitrate excreted in the urine, share of nitric oxide dose inhaled ([2]; predominant metabolite): more than 70%
serum nitrite/nitrate levels vs baseline [3]: no significant differences
plasma cytokine levels [4]: unaffected
animals that died during the first 1-2 days ([5]; 300 ppm gNO, group of 10 rats): Six
mortality ([5]; 400 ppm gNO): all of the animals died on the first day
mortality ([5]; 500 ppm gNO): all of the animals died on the first day
MetHb level ([5]; 500 ppm gNO): 67 percents
MetHb level (methemoglobin (MetHb); gNO 128 ppm for 3 hours): > 5%
MetHb level (methemoglobin (MetHb); gNO 512 ppm for 55 minutes): > 5%
biofilm presence [6]: no longer visibly present
LD100 (Klebsiella sp. #2): 5 h
Latent Period (Klebsiella sp. #2): 2 h
−2.5 Log10 (Klebsiella sp. #2): 4.1 hours
